{
  "source": "ChEMBL document CHEMBL1201862",
  "about": "“PubChem BioAssay data set” (2004)",
  "assay_in_all_cases": "inhibition of tumour cell growth, NCI panel, 48 h",
  "key": {"SNB-75": {"test_system": "SNB-75"}, "PC-3": {"test_system": "PC-3"}, "MOLT-4": {"test_system": "MOLT-4"}, "HCC 2998": {"test_system": "HCC 2998"}, "IGROV-1": {"test_system": "IGROV-1"}, "BT-549": {"test_system": "BT-549"}, "A498": {"test_system": "A498"}, "DU-145": {"test_system": "DU-145"}, "HL-60": {"test_system": "HL-60"}, "ACHN": {"test_system": "ACHN"}, "SN12C": {"test_system": "SN12C"}, "M14": {"test_system": "M14"}, "Malme-3M": {"test_system": "Malme-3M"}, "OVCAR-8": {"test_system": "OVCAR-8"}, "HT-29": {"test_system": "HT-29"}, "OVCAR-5": {"test_system": "OVCAR-5"}, "NCI/ADR-RES": {"test_system": "NCI/ADR-RES"}, "HCT-15": {"test_system": "HCT-15"}, "786-0": {"test_system": "786-0"}, "SK-OV-3": {"test_system": "SK-OV-3"}, "RPMI-8226": {"test_system": "RPMI-8226"}, "CCRF-CEM": {"test_system": "CCRF-CEM"}, "NCI-H460": {"test_system": "NCI-H460"}, "TK-10": {"test_system": "TK-10"}, "SK-MEL-2": {"test_system": "SK-MEL-2"}, "SNB-19": {"test_system": "SNB-19"}, "Hs-578T": {"test_system": "Hs-578T"}, "MCF7": {"test_system": "MCF7"}, "A549": {"test_system": "A549"}, "NCI-H522": {"test_system": "NCI-H522"}, "HCT-116": {"test_system": "HCT-116"}, "MDA-MB-435": {"test_system": "MDA-MB-435"}, "UACC-257": {"test_system": "UACC-257"}, "HOP-62": {"test_system": "HOP-62"}, "UACC-62": {"test_system": "UACC-62"}, "CAKI-1": {"test_system": "CAKI-1"}, "LOX IMVI": {"test_system": "LOX IMVI"}, "OVCAR-3": {"test_system": "OVCAR-3"}, "MDA-N": {"test_system": "MDA-N"}, "KM12": {"test_system": "KM12"}, "NCI-H226": {"test_system": "NCI-H226"}, "SW-620": {"test_system": "SW-620"}, "SR": {"test_system": "SR"}, "SK-MEL-28": {"test_system": "SK-MEL-28"}, "NCI-H23": {"test_system": "NCI-H23"}, "MDA-MB-231": {"test_system": "MDA-MB-231"}, "HOP-92": {"test_system": "HOP-92"}, "UO-31": {"test_system": "UO-31"}, "SF-539": {"test_system": "SF-539"}, "T47D": {"test_system": "T47D"}, "SF-295": {"test_system": "SF-295"}, "OVCAR-4": {"test_system": "OVCAR-4"}, "SF-268": {"test_system": "SF-268"}, "U-251": {"test_system": "U-251"}, "EKVX": {"test_system": "EKVX"}, "COLO 205": {"test_system": "COLO 205"}, "SK-MEL-5": {"test_system": "SK-MEL-5"}},
  "note": "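Cells were grown in 96-well plates and exposed to each compound for 48 hours at five concentrations; endpoints were interpolated linearly between bracketing concentrations, or set to the highest concentration if not reached. GI50 is the concentration that inhibits growth by half.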 Activity calls are given as the source filed them. Rule as the data show it: active = GI50 up to about 1.1 µM and inactive = higher.",
  "data": [
    {"molecule": "CCOc1cc(/C=N/c2ccc(Oc3ccc(Cl)cc3)c(Cl)c2)ccc1O", "values": [
      {"measurement": "GI50", "setting": "SNB-75", "result": "17.8 µM (inactive)"},
      {"measurement": "GI50", "setting": "PC-3", "result": "31.8 µM (inactive)"},
      {"measurement": "GI50", "setting": "MOLT-4", "result": "18.7 µM (inactive)"},
      {"measurement": "GI50", "setting": "HCC 2998", "result": "19.3 µM (inactive)"},
      {"measurement": "GI50", "setting": "IGROV-1", "result": "19.1 µM (inactive)"},
      {"measurement": "GI50", "setting": "BT-549", "result": "17.8 µM (inactive)"},
      {"measurement": "GI50", "setting": "A498", "result": "12.4 µM (inactive)"},
      {"measurement": "GI50", "setting": "DU-145", "result": "50.5 µM (inactive)"},
      {"measurement": "GI50", "setting": "HL-60", "result": "15.3 µM (inactive)"},
      {"measurement": "GI50", "setting": "ACHN", "result": "32.4 µM (inactive)"},
      {"measurement": "GI50", "setting": "SN12C", "result": "20.8 µM (inactive)"},
      {"measurement": "GI50", "setting": "M14", "result": "29.8 µM (inactive)"},
      {"measurement": "GI50", "setting": "Malme-3M", "result": "23.3 µM (inactive)"},
      {"measurement": "GI50", "setting": "OVCAR-8", "result": "23 µM (inactive)"},
      {"measurement": "GI50", "setting": "HT-29", "result": "20.8 µM (inactive)"},
      {"measurement": "GI50", "setting": "OVCAR-5", "result": "28.1 µM (inactive)"},
      {"measurement": "GI50", "setting": "NCI/ADR-RES", "result": "21.8 µM (inactive)"},
      {"measurement": "GI50", "setting": "HCT-15", "result": 22.5, "unit": "µM"},
      {"measurement": "GI50", "setting": "786-0", "result": "17 µM (inactive)"},
      {"measurement": "GI50", "setting": "SK-OV-3", "result": "26.1 µM (inactive)"},
      {"measurement": "GI50", "setting": "RPMI-8226", "result": "29.7 µM (inactive)"},
      {"measurement": "GI50", "setting": "CCRF-CEM", "result": "16.1 µM (inactive)"},
      {"measurement": "GI50", "setting": "NCI-H460", "result": "18.6 µM (inactive)"},
      {"measurement": "GI50", "setting": "TK-10", "result": "43.1 µM (inactive)"},
      {"measurement": "GI50", "setting": "SK-MEL-2", "result": "24.5 µM (inactive)"},
      {"measurement": "GI50", "setting": "SNB-19", "result": "25.2 µM (inactive)"},
      {"measurement": "GI50", "setting": "Hs-578T", "result": "18.8 µM (inactive)"},
      {"measurement": "GI50", "setting": "MCF7", "result": "31.9 µM (inactive)"},
      {"measurement": "GI50", "setting": "A549", "result": "30.1 µM (inactive)"},
      {"measurement": "GI50", "setting": "NCI-H522", "result": "13.7 µM (inactive)"},
      {"measurement": "GI50", "setting": "HCT-116", "result": "17.9 µM (inactive)"},
      {"measurement": "GI50", "setting": "MDA-MB-435", "result": "35.3 µM (inactive)"},
      {"measurement": "GI50", "setting": "UACC-257", "result": "27.1 µM (inactive)"},
      {"measurement": "GI50", "setting": "HOP-62", "result": "23.1 µM (inactive)"},
      {"measurement": "GI50", "setting": "UACC-62", "result": "27.7 µM (inactive)"},
      {"measurement": "GI50", "setting": "CAKI-1", "result": "19.8 µM (inactive)"},
      {"measurement": "GI50", "setting": "LOX IMVI", "result": "19.8 µM (inactive)"},
      {"measurement": "GI50", "setting": "OVCAR-3", "result": "29.6 µM (inactive)"},
      {"measurement": "GI50", "setting": "MDA-N", "result": "25 µM (inactive)"},
      {"measurement": "GI50", "setting": "KM12", "result": "18.2 µM (inactive)"},
      {"measurement": "GI50", "setting": "NCI-H226", "result": "26.9 µM (inactive)"},
      {"measurement": "GI50", "setting": "SW-620", "result": "29.6 µM (inactive)"},
      {"measurement": "GI50", "setting": "SR", "result": "33.2 µM (inactive)"},
      {"measurement": "GI50", "setting": "SK-MEL-28", "result": "25.2 µM (inactive)"},
      {"measurement": "GI50", "setting": "NCI-H23", "result": "22.7 µM (inactive)"},
      {"measurement": "GI50", "setting": "MDA-MB-231", "result": "19.6 µM (inactive)"},
      {"measurement": "GI50", "setting": "HOP-92", "result": "19.7 µM (inactive)"},
      {"measurement": "GI50", "setting": "UO-31", "result": "11.8 µM (inactive)"},
      {"measurement": "GI50", "setting": "SF-539", "result": "22.8 µM (inactive)"},
      {"measurement": "GI50", "setting": "T47D", "result": "36.3 µM (inactive)"},
      {"measurement": "GI50", "setting": "SF-295", "result": "18.7 µM (inactive)"},
      {"measurement": "GI50", "setting": "OVCAR-4", "result": "34 µM (inactive)"},
      {"measurement": "GI50", "setting": "SF-268", "result": "15.7 µM (inactive)"},
      {"measurement": "GI50", "setting": "U-251", "result": "21.7 µM (inactive)"},
      {"measurement": "GI50", "setting": "EKVX", "result": "18.5 µM (inactive)"},
      {"measurement": "GI50", "setting": "COLO 205", "result": "17.5 µM (inactive)"},
      {"measurement": "GI50", "setting": "SK-MEL-5", "result": "22.3 µM (inactive)"}
    ]}
  ]
}
